{"source": "patent US7725174B2", "about": "(priority 2006, dated 2010)", "key": {"[1]": {"test_system": "human volunteer subjects", "details": "one subject", "excerpt": "As with ApEn, these entropy measures compare changes in the time series of raw EEG data as it is generated. However, they are designed to determine qualities about the system which is generating the data. As such, they have potential to impart information about changes in CNS rather than just changes in the EEG. Information can be related about the CNS from a mesoscopic scale to a microscopic scale. […] Correlation dimension has not been used for real time analyses in the past because the computation usually requires large data sets for precise determination of the actual dimension of the data space. (See, Preissl, H., W. Lutzenberger, F. Pulvermuller, and N. Birbaumer, Fractal dimensions of short EEG time series in humans. Neurosci Lett, 1997. 225: p. 77-80.) To address this problem, we used short segments (e.g., 10 seconds) of data to calculate the correlation dimension and averaged the critical distance parameter ε, with each new estimate. Though this limits the accuracy with which signal dimension can be determined, it provides a reasonable estimate that changes as signal complexity changes.\nUsing the same raw EEG data, Lyapunov exponents of the EEG were also determined. Lyapunov exponents provide a qualitative indicator of signal stability. Unstable signals are sensitive to initial conditions and thus the predictability of their future trajectory is difficult. […]"}, "[2]": {"test_system": "human volunteer subjects", "details": "in vivo"}}}
{"smiles": "CC(C)c1cccc(C(C)C)c1O", "note": "[propofol]", "values": [{"measurement": "Lyapunov exponent with increasing sedation", "setting": "[1]; FIG. 9", "result": "tends towards a positive value"}, {"measurement": "changes in correlation dimension by clinical frequency band", "setting": "[1]; awake to deeper levels of sedation, FIG. 8", "result": "appear in the higher frequency ranges first"}, {"measurement": "change in ApEn with drug concentration", "setting": "[2]", "result": "decreased"}]}
